The NIST ThermoML archive (doi:10.1021/acs.jced.6b00350)
Values joined by “and” are separate entries in the source; they are usually repeats but may differ in a detail not shown here. Identical values can stand only once.

Settings: Liquid, Hot wire method

FC(F)CC(F)(F)F [1,1,1,3,3-pentafluoropropane]
Settings | thermal conductivity
201.86 K, 21419 kPa | 0.124 W/m/K
201.86 K, 21433 kPa | 0.1239 W/m/K
201.87 K, 27158 kPa | 0.1248 W/m/K
202.1 K, 4763 kPa | 0.1206 W/m/K
202.12 K, 10088 kPa | 0.1217 W/m/K
202.12 K, 10097 kPa | 0.1218 W/m/K
202.15 K, 15804 kPa | 0.1229 W/m/K
202.15 K, 15839 kPa | 0.1229 W/m/K
202.2 K, 267 kPa | 0.1193 W/m/K
202.2 K, 275 kPa | 0.1195 W/m/K
202.2 K, 21408 kPa | 0.1237 W/m/K
202.2 K, 21420 kPa | 0.1237 W/m/K
202.21 K, 27161 kPa | 0.1249 W/m/K
202.23 K, 27677 kPa | 0.1252 W/m/K
202.24 K, 27673 kPa | 0.1255 W/m/K
202.24 K, 33666 kPa | 0.1267 W/m/K
202.24 K, 33675 kPa | 0.1266 W/m/K
202.26 K, 40147 kPa | 0.1279 W/m/K
202.26 K, 40151 kPa | 0.1278 W/m/K
202.27 K, 46773 kPa | 0.129 W/m/K
202.27 K, 46779 kPa | 0.1291 W/m/K
202.27 K, 53774 kPa | 0.1304 W/m/K
202.28 K, 53774 kPa | 0.1304 W/m/K
202.28 K, 60672 kPa | 0.1313 W/m/K
202.28 K, 60684 kPa | 0.1319 W/m/K
202.29 K, 67566 kPa | 0.1328 W/m/K
202.29 K, 67588 kPa | 0.1327 W/m/K
202.48 K, 4763 kPa | 0.1205 W/m/K
202.49 K, 10097 kPa | 0.1216 W/m/K
202.49 K, 10103 kPa | 0.1216 W/m/K
202.52 K, 15780 kPa | 0.1229 W/m/K
202.52 K, 15825 kPa | 0.1229 W/m/K
202.57 K, 21412 kPa | 0.1238 W/m/K
202.57 K, 21416 kPa | 0.1237 W/m/K
202.57 K, 27164 kPa | 0.1249 W/m/K
202.58 K, 275 kPa | 0.1195 W/m/K
202.58 K, 288 kPa | 0.1194 W/m/K
202.59 K, 27679 kPa | 0.1253 W/m/K
202.59 K, 27683 kPa | 0.1253 W/m/K
202.59 K, 33679 kPa | 0.1264 W/m/K
202.6 K, 33675 kPa | 0.1265 W/m/K
202.61 K, 40142 kPa | 0.1278 W/m/K
202.62 K, 40147 kPa | 0.1278 W/m/K
202.62 K, 46778 kPa | 0.129 W/m/K
202.62 K, 46780 kPa | 0.1289 W/m/K
202.62 K, 53770 kPa | 0.1302 W/m/K and 0.1303 W/m/K
202.63 K, 60672 kPa | 0.1318 W/m/K
202.63 K, 60673 kPa | 0.1317 W/m/K
202.63 K, 67539 kPa | 0.1325 W/m/K
202.63 K, 67552 kPa | 0.1327 W/m/K
202.89 K, 4767 kPa | 0.1203 W/m/K
202.89 K, 4772 kPa | 0.1204 W/m/K
202.9 K, 10110 kPa | 0.1216 W/m/K
202.92 K, 15810 kPa | 0.1227 W/m/K
202.92 K, 15863 kPa | 0.1227 W/m/K
202.97 K, 21416 kPa | 0.1236 W/m/K
202.97 K, 21421 kPa | 0.1236 W/m/K
202.97 K, 27152 kPa | 0.1247 W/m/K
202.97 K, 27157 kPa | 0.1247 W/m/K
202.98 K, 27682 kPa | 0.1253 W/m/K
202.98 K, 33690 kPa | 0.1266 W/m/K
202.99 K, 306 kPa | 0.1193 W/m/K
202.99 K, 337 kPa | 0.1194 W/m/K
202.99 K, 27679 kPa | 0.1252 W/m/K
202.99 K, 33685 kPa | 0.1265 W/m/K
203 K, 40148 kPa | 0.1278 W/m/K
203 K, 46783 kPa | 0.1289 W/m/K and 0.129 W/m/K
203 K, 53771 kPa | 0.1302 W/m/K
203 K, 53775 kPa | 0.1301 W/m/K
203 K, 60661 kPa | 0.1314 W/m/K
203 K, 60670 kPa | 0.1314 W/m/K
203 K, 67499 kPa | 0.1327 W/m/K
203 K, 67521 kPa | 0.1326 W/m/K
203.01 K, 40146 kPa | 0.1276 W/m/K
203.32 K, 4769 kPa | 0.1202 W/m/K
203.32 K, 4775 kPa | 0.1202 W/m/K
203.33 K, 10125 kPa | 0.1214 W/m/K
203.33 K, 10131 kPa | 0.1214 W/m/K
203.34 K, 15898 kPa | 0.1226 W/m/K
203.35 K, 15840 kPa | 0.1227 W/m/K
203.39 K, 27154 kPa | 0.1246 W/m/K
203.39 K, 27157 kPa | 0.1243 W/m/K
203.4 K, 21419 kPa | 0.1235 W/m/K
203.4 K, 33699 kPa | 0.1263 W/m/K
203.4 K, 67478 kPa | 0.1323 W/m/K
203.41 K, 27689 kPa | 0.1252 W/m/K
203.41 K, 33685 kPa | 0.1264 W/m/K
203.41 K, 46771 kPa | 0.1289 W/m/K
203.41 K, 46773 kPa | 0.1287 W/m/K
203.41 K, 53771 kPa | 0.1302 W/m/K
203.41 K, 53772 kPa | 0.1301 W/m/K
203.41 K, 60658 kPa | 0.1313 W/m/K
203.41 K, 60664 kPa | 0.1315 W/m/K
203.41 K, 67491 kPa | 0.1325 W/m/K
203.42 K, 40141 kPa | 0.1277 W/m/K
203.42 K, 40147 kPa | 0.1276 W/m/K
203.43 K, 372 kPa | 0.119 W/m/K
203.43 K, 393 kPa | 0.1193 W/m/K
203.83 K, 67450 kPa | 0.1325 W/m/K
203.83 K, 67465 kPa | 0.1324 W/m/K
203.84 K, 53769 kPa | 0.13 W/m/K
203.84 K, 60649 kPa | 0.1313 W/m/K and 0.1311 W/m/K
203.85 K, 27696 kPa | 0.1251 W/m/K
203.85 K, 33690 kPa | 0.1263 W/m/K
203.85 K, 33700 kPa | 0.1263 W/m/K
203.85 K, 46765 kPa | 0.1288 W/m/K
203.85 K, 46774 kPa | 0.1288 W/m/K
203.85 K, 53757 kPa | 0.13 W/m/K
203.86 K, 27682 kPa | 0.125 W/m/K
203.86 K, 40135 kPa | 0.1275 W/m/K
203.86 K, 40141 kPa | 0.1276 W/m/K
221.72 K, 250 kPa | 0.1129 W/m/K
221.72 K, 251 kPa | 0.113 W/m/K
221.73 K, 4830 kPa | 0.1143 W/m/K
221.73 K, 4854 kPa | 0.1145 W/m/K
221.74 K, 10031 kPa | 0.1155 W/m/K
221.75 K, 10011 kPa | 0.1159 W/m/K
221.76 K, 15754 kPa | 0.1169 W/m/K
221.76 K, 15760 kPa | 0.1169 W/m/K
221.77 K, 21259 kPa | 0.1183 W/m/K
221.77 K, 21264 kPa | 0.1188 W/m/K
221.78 K, 27420 kPa | 0.1202 W/m/K
221.78 K, 27443 kPa | 0.1204 W/m/K
222 K, 39755 kPa | 0.1236 W/m/K
222 K, 39756 kPa | 0.1236 W/m/K
222 K, 47190 kPa | 0.1252 W/m/K
222.01 K, 47202 kPa | 0.1258 W/m/K
222.01 K, 54322 kPa | 0.1269 W/m/K
222.01 K, 54323 kPa | 0.1269 W/m/K
222.02 K, 61325 kPa | 0.1285 W/m/K
222.02 K, 61363 kPa | 0.1286 W/m/K
222.02 K, 67941 kPa | 0.1302 W/m/K
222.02 K, 67960 kPa | 0.13 W/m/K
222.09 K, 253 kPa | 0.1125 W/m/K
222.09 K, 4859 kPa | 0.1139 W/m/K
222.09 K, 4863 kPa | 0.1139 W/m/K
222.1 K, 247 kPa | 0.1124 W/m/K
222.11 K, 10038 kPa | 0.1155 W/m/K
